In data set [1] the test system is tri-amino peptidase activity in mucinous cyst fluid. The data set is described as follows: MSP-MS assay of mucinous cyst fluid with protease inhibitors. The format is biochemical, human. The conditions noted are these: 2 μmol/L pepstatin; for effect on tri-amino peptidase activity (cleavage after third amino acid): pH 3.5, 10 μmol/L AAF-CMK. The method, then: The MSP-MS assay was performed as described previously (Ivry et al., 2017; O'Donoghue et al., 2012). Cyst fluid protein concentration was first determined through the BCA assay (Thermo Fisher, 23225). Cyst fluid samples were then diluted to 100 μg/mL in pH 3.5 acetate buffer or pH 7.5 phosphate buffer. The 228 tetradecapeptide was split into two pools of 114 peptides each and diluted to 1 μmol/L in either acetate or phosphate buffer. Equal volumes of diluted cyst fluid and peptide pools were combined and incubated at room temperature. After 15 and 60 minutes, 30 μL aliquots were removed and protease activity was quenched with 8 mol/L guanidinium hydrochloride. Aliquots were then desalted using C18 tips (Rainin). The following inhibitors were included in specified MSP-MS assays: 1 mmol/L AEBSF (Sigma, A8456), 2 mmol/L E64 (Sigma, E3132), 2 μmol/L pepstatin (Sigma, P5318), 2 mmol/L 1,10-phenanthroline (Sigma, 131337), and 10 μmol/L AAF-CMK (Enzo, BML-PI123).
Mass spectrometry analysis was performed with an LTQ Orbitrap XL Mass Spectrometer (Thermo Fisher) coupled to an Ultra Performance Liquid Chromatography (UPLC) System (Waters). Peptides were separated over a C18 column (Thermo Fisher, ES800) with a 65-minute linear gradient from 2%-30% acetonitrile. MS spectra were acquired over an m/z range of 325-1,500 and MS/MS spectra were obtained for the six most intense precursor ions by collision-induced dissociation (CID). Peak lists were generated using MSConvert and searched in Protein Prospector v. 5.10.0 against a database containing the sequences from the 228 tetradecapeptide library. Searches used a mass tolerance of 20 ppm for precursors and 0.8 Da for fragments. The following variable modifications were allowed: N-terminal pyroglutamate conversion from glutamine or glutamate and oxidation of tryptophan, proline, and tyrosine. Search outputs were then processed using the MSP-xtractor software (http://www.craiklab.ucsfedu/extractor.html). […] Spectral counts were used for relative quantification of MSP-MS results.

For data set [2], the target named is most rapidly cleaved internally quenched fluorescent TPP1 substrate (P3 to P4' sequence from the MSP-MS library, lysine-fluorophore in P1).

Square brackets hold non-standard residues; d marks the D form. Peptide text beside a SMILES is read from it. * marks the point of attachment. Sta = CC(C)C[C@H](N)[C@@H](O)CC(=O)O; Isovaleryl = CC(C)CC(=O)*; CH2Cl = ClC*

`CC(C)CC(=O)N[C@H](C(=O)N[C@H](C(=O)N[C@@H](CC(C)C)[C@@H](O)CC(=O)N[C@@H](C)C(=O)N[C@@H](CC(C)C)[C@@H](O)CC(=O)O)C(C)C)C(C)C` [pepstatin] (Isovaleryl-VV[Sta]A[Sta]-OH): the “number of detected peptide cleavages at other positions enriched in mucinous cysts (B6, B8, B9, B10)” value in data set [1] (acidic pH) was “decrease”. The “effect on tri-amino peptidase activity (cleavage after third amino acid)” value in data set [1] is on record as “not inhibited”.
For `C[C@H](N)C(=O)N[C@@H](C)C(=O)N[C@@H](Cc1ccccc1)C(=O)CCl` [tripeptide chloromethylketone inhibitor, Ala-Ala-Phe-chloromethylketone] (H-Ala-Ala-Phe-CH2Cl), the “effect on tri-amino peptidase activity (cleavage after third amino acid)” value in data set [1] is “almost completely ablated”.

B1: recombinant tripeptidyl peptidase 1 (TPP1) (protein)
chain: LHLGVTPSVIRKRYNLTSQDVGSGTSNNSQACAQFLEQYFHDSDLAQFMRLFGGNFAHQASVARVVGQQGRGRAGIEASLDVQYLMSAGANISTWVYSSPGRHEGQEPFLQWLMLLSNESALPHVHTVSYGDDEDSLSSAYIQRVNTELMKAAARGLTLLFASGDSGAGCWSVSGRHQFRPTFPASSPYVTTVGGTSFQEPFLITNEIVDYISGGGFSNVFPRPSYQEEAVTKFLSSSPHLPPSSYFNASGRAYPDVAALSDGYWVVSNRVPIPWVSGTSASTPVFGGILSLINEHRILSGRPPLGFLNPRLYQQHGAGLFDVTRGCHESCLDEEVEGQGFCSGPGWDPVTGWGTPNFPALLKTLLNP
On to B1, for which, in data set [2], the “kcat/Km (cleavage of internally quenched fluorescent substrate, fluorescence assay, pH 4.5)” value is recorded as “kcat/Km of 2.5 µmol^-1s^-1”.

(Values after US20220381784A1, “SYSTEMS COMPRISING SUBSTRATES AND METHODS OF USING THE SAME FOR DETECTION OF PANCREATIC CANCERS” (THE REGENTS OF THE UNIVERSITY OF CALIFORNIA, priority 2019, published 2022).)
